Where two headings read alike, the source gives them in different places. Marks after values point to notes of the source that are not given here.
Target: T1, F508delCFTR (Homo sapiens, UniProt P13569, DEL508-508)
T1 construct: expressed in transfected cells; host or cells: CFBE41o- human lung derived epithelial cells (CFBE41o-F508delCFTR-HRP), doxycycline-inducible
Assay: Cell Surface Expression-Horse Radish Peroxidase (CSE-HRP) Assay;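 for EC50 (with co-corrector): co-corrector chromenyl benzoic acid corrector at 2 or 3 µM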;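 for Maximum % activity (without co-corrector): % of on-plate positive control chromenyl benzoic acid corrector at 2 or 3 µM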
Format: cell-based
Conditions: for Maximum % activity (with co-corrector) / Emax: maximum at any tested concentration; for Emax: read-out: Maximum % activity (without co-corrector)
Outline: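 Corrector compounds were given as 8-point 3-fold series from 20 or 30 μM, with or without a 2 μM co-corrector, for 18-24 h at 33 °C. Surface HRP was read by luminol luminescence as % of positive control; variable-Hill-slope sigmoidal fitting gave EC50 from triplicate plates.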

[1] = test compound alone, without co-corrector, read-out: EC50 (without co-corrector)
[2] = with co-corrector, read-out: EC50 (with co-corrector)
[3] = test compound with co-corrector
[4] = test compound with co-corrector, read-out: EC50 (with co-corrector)
[5] = test compound without co-corrector
[6] = test compound without co-corrector, read-out: EC50 (without co-corrector)

T1 sequence (P13569 with tags, fused parts or gaps DEL508-508): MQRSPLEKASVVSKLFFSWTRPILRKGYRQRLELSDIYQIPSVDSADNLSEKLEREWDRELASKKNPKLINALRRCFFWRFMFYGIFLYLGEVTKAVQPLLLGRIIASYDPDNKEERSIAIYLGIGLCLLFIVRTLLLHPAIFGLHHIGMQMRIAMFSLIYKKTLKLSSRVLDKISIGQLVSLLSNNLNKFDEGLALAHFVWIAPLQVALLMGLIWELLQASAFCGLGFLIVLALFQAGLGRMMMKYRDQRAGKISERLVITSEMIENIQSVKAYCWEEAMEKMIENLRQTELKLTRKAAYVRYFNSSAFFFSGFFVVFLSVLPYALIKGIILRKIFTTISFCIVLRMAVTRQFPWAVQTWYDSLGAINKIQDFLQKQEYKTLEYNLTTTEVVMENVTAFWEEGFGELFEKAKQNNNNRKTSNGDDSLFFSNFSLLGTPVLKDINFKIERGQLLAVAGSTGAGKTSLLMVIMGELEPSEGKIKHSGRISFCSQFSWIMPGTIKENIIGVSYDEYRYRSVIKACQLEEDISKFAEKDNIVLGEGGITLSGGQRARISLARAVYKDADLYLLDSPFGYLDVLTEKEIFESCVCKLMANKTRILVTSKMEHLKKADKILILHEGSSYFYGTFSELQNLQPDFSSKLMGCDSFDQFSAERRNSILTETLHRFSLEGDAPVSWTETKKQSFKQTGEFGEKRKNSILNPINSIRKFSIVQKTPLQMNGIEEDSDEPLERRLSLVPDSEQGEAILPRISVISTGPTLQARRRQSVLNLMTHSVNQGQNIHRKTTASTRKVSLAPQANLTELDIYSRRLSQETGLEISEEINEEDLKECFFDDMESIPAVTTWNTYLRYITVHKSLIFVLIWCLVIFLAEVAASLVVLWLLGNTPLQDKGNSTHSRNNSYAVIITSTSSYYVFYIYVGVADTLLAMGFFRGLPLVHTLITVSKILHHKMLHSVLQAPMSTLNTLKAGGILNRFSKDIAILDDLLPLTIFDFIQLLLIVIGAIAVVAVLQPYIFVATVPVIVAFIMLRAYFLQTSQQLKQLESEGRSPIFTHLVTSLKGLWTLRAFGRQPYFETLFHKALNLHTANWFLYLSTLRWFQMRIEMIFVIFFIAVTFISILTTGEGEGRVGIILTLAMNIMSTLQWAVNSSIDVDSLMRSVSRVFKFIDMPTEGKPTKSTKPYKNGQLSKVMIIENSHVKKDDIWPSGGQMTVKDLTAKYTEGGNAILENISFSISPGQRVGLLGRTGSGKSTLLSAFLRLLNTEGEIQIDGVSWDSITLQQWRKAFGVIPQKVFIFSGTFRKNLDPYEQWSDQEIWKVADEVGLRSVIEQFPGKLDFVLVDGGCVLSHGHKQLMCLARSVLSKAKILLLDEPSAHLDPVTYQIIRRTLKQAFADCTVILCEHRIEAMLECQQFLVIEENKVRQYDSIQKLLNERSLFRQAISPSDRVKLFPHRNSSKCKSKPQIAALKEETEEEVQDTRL

Row | EC50 [1] [µM] | Maximum % activity (with co-corrector) (with co-corrector) | EC50 [2] [µM] | Emax (without co-corrector) [%] | Maximum % activity (with co-corrector) [3] | EC50 [4] [µM] | Emax [5] [%] | EC50 [6] [µM] | EC50 (with co-corrector) [3] | EC50 (without co-corrector) [5] | SMILES
1 | > 10 | ++ (≥150 and <350) | 3 to 10 | < 50 |  |  |  |  |  |  | O=C(NS(=O)(=O)Cc1ccccc1)C1(c2ccccc2Cl)CC1 [Example III-113, 1-(2-chlorophenyl)-N-(phenylmethanesulfonyl)cyclopropane-1-carboxamide]
2 | > 10 | ++ (≥150 and <350) | 3 to 10 | < 50 |  |  |  |  |  |  | O=C(OCc1ccccc1)N1CCC(S(=O)(=O)NC(=O)C2(c3ccc(Cl)cc3Cl)CC2)CC1 [Example III-22, benzyl 4-{[1-(2,4-dichlorophenyl)cyclopropane-1-carbonyl]sulfamoyl}piperidine-1-carboxylate]
3 |  |  |  |  | + (<150) | > 10 | < 50 | > 10 |  |  | CN1CCN(c2ncc(C3CC3)cc2C2(C(=O)NS(=O)(=O)c3cccc4[nH]ccc34)CC2)CC1 [GIII-36]
4 | 3 to 10 | +++ (≥350) | 3 to 10 | 50 to 150 |  |  |  |  |  |  | O=C(NS(=O)(=O)c1ccccc1)C1(c2ccc(Cl)cc2Cl)CC1 [Example III-3, N-(benzenesulfonyl)-1-(2,4-dichlorophenyl)cyclopropane-1-carboxamide]
5 | < 3 | +++ (≥350) | < 3 | > 150 |  |  |  |  |  |  | COc1ncc(C2CCC2)cc1C1(C(=O)NS(=O)(=O)c2cccc3c2CCCN3)CC1 [Example I-6, 1-(5-cyclobutyl-2-methoxypyridin-3-yl)-N-(1,2,3,4-tetrahydroquinoline-5-sulfonyl)cyclopropane-1-carboxamide]
6 |  |  |  |  | ++ (≥150 and <350) |  | 50 to 150 |  | ++^a | ++^a | O=C(NS(=O)(=O)c1cccc2ncccc12)C1(c2cc(C3CC3)cnc2N2CCOCC2)CC1 [GIII-25]
7 |  |  |  |  | +++ (≥350) | < 3 | > 150 | < 3 |  |  | CCc1cnc(OCC(C)C)c(C2(C(=O)NS(=O)(=O)c3cccc4[nH]ccc34)CC2)c1 [Example GI-47, 1-[5-ethyl-2-(2-methylpropoxy)pyridin-3-yl]-N-(1H-indole-4-sulfonyl)cyclopropane-1-carboxamide]
8 |  |  |  |  | +++ (≥350) | < 3 | > 150 | < 3 |  |  | Cc1ccc2c(S(=O)(=O)NC(=O)C3(c4cc(C5CCC5)cnc4OCC(C)C)CC3)cccc2n1 [Example GI-53, 1-[5-cyclobutyl-2-(2-methylpropoxy)pyridin-3-yl]-N-(2-methylquinoline-5-sulfonyl)cyclopropane-1-carboxamide]
9 | 3 to 10 | +++ (≥350) | < 3 | > 150 |  |  |  |  |  |  | COc1cccc(C)c1C1(C(=O)NS(=O)(=O)c2cccc3ncccc23)CC1 [II-35]
10 |  |  |  |  | +++ (≥350) | < 3 | > 150 | < 3 |  |  | CC(C)Oc1ncc(N2CCCC2)cc1C1(C(=O)NS(=O)(=O)c2cccc3[nH]ccc23)CC1 [Example GI-64, N-(1H-indole-4-sulfonyl)-1-{2-[(propan-2-yl)oxy]-5-(pyrrolidin-1-yl)pyridin-3-yl}cyclopropane-1-carboxamide]
11 | > 10 | ++ (≥150 and <350) | > 10 | < 50 |  |  |  |  |  |  | O=C(NS(=O)(=O)Cc1ccccc1)C1(c2ccccc2F)CC1 [Example III-35, 1-(2-fluorophenyl)-N-(phenylmethanesulfonyl)cyclopropane-1-carboxamide]
12 |  |  |  |  | +++ (≥350) | < 3 | > 150 | < 3 |  |  | COc1cnc(OCC2CC2)c(C2(C(=O)NS(=O)(=O)c3cccc4nc(C)ccc34)CC2)c1 [Example GI-92, 1-[2-(cyclopropylmethoxy)-5-methoxypyridin-3-yl]-N-(2-methylquinoline-5-sulfonyl)cyclopropane-1-carboxamide]
